Earlier results in patent US8940311B2, “In situ controlled release drug delivery system” (priority 2004, dated 2015).

Tests used:
[1] = tested on: liver microsomal enzymes
[2] = target: plasma cholinesterase (Homo sapiens, UniProt P06276); conditions: hydrolysis by plasma cholinesterase
plasma cholinesterase, sequence (P06276 29-602): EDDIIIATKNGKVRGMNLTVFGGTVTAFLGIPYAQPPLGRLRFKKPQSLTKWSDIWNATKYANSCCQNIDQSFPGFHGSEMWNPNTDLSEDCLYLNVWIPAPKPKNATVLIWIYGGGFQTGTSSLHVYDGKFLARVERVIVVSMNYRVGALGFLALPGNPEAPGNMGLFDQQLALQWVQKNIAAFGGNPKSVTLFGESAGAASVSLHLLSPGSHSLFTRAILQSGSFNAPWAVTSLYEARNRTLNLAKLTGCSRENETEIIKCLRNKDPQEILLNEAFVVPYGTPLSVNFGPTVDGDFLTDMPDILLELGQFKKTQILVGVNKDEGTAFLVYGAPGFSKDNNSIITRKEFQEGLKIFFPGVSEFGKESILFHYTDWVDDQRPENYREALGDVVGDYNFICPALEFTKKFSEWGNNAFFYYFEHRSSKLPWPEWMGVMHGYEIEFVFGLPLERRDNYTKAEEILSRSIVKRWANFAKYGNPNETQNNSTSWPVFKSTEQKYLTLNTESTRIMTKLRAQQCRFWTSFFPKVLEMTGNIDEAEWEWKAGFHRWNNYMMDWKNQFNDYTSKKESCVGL

Row | SMILES | order of rate of amide hydrolysis [1] | half-life [2]
1 | CCCCN1CCCCC1C(=O)Nc1c(C)cccc1C (stereo not shown) [bupivacaine] | slowest | –
2 | CCN(CC)CCOC(=O)c1ccc(N)cc1Cl [chloroprocaine] | – | less than one
3 | CCCN(CC)C(CC)C(=O)Nc1c(C)cccc1C (stereo not shown) [etidocaine] | fastest | –
4 | CCN(CC)CCOC(=O)c1ccc(N)cc1 [procaine] | – | less than one
